{"source": "patent US20100063020A1", "about": "“ORAL PHARMACEUTICAL FORMULATIONS AND METHODS FOR PRODUCING AND USING SAME” (priority 2004, published 2010)", "key": {"[1]": {"experiment": "Intrinsic dissolution of high melt and low melt forms of 17-AAG in ethanol", "type": "physicochemical", "protocol": "The performance of an active pharmaceutical ingredient (i.e., dissolution rate) can be affected by polymorphic state. The intrinsic dissolution of the high melt and low melt forms of 17-AAG were determined in ethanol. Ethanol was chosen as the solvent since 17-AAG is soluble in ethanol."}, "[2]": {"experiment": "Solvent stability of low melt form (slurry in H2O:EtOH 90:10)", "type": "physicochemical", "protocol": "17-AAG may be prepared from geldanamycin by reacting with allyamine in dry THF under a nitrogen atmosphere. The crude product may be purified by slurrying in H2O:EtOH (90:10), and the washed crystals obtained have a melting point of 206-212° C. by capillary melting point technique. […] The two 17-AAG products are designated as the low melt form and high melt form.\nMP=147-155° C. ^1 H NMR and HPLC are consistent with the desired product."}, "[3]": {"experiment": "in vitro", "type": "in vitro ADME", "details": "human, Caco-2", "excerpt": "The permeability of the pharmaceutical active ingredient across the gastrointestinal membrane may be estimated from it permeability across a Caco-2 cell monolayer using standard techniques (e.g. Chong S et al. Pharmaceutical Research 1997 14(12):1835-1837). The reference is hereby expressly incorporated by reference.\nPropranolol was included in each assay as a high permeability control compound."}}, "data": [{"smiles": "C=CCNC1=C2C[C@@H](C)C[C@H](OC)[C@H](O)[C@@H](C)/C=C(\\C)[C@H](OC(N)=O)[C@@H](OC)/C=C\\C=C(/C)C(=O)NC(=CC1=O)C2=O", "note": "[high melt form, 17-allylamino-17-demethoxygeldanamycin]", "values": [{"measurement": "intrinsic dissolution rate", "setting": "[1]", "value": 0.550, "unit": "mg/cm^2/min"}]}, {"smiles": "C=CCNC1=C2C[C@@H](C)C[C@H](OC)[C@H](O)[C@@H](C)/C=C(\\C)[C@H](OC(N)=O)[C@@H](OC)/C=C\\C=C(/C)C(=O)NC(=CC1=O)C2=O", "note": "[low melt form of 17-AAG, 17-allylamino-17-demethoxygeldanamycin]", "values": [{"measurement": "intrinsic dissolution rate", "setting": "[1]", "value": 0.885, "unit": "mg/cm^2/min"}, {"measurement": "percent higher intrinsic dissolution rate of low melt form vs high melt form", "setting": "[1]", "value": 60, "unit": "%"}, {"measurement": "conversion of polymorphic form on slurrying", "setting": "[2]", "value": "no conversion to the high melt form was observed"}]}, {"smiles": "CC(C)NCC(O)COc1cccc2ccccc12", "note": "(centres unmarked) [propranolol]", "values": [{"measurement": "Papp", "setting": "[3]", "value": 16, "unit": "×10⁻⁶ cm/s"}]}]}
